Several values for one entry are separate records, joined by “and”; a condition that tells them apart may be missing. Identical values can stand only once. Like-named read-outs stand apart in the source and are kept apart here.
Columns and labels:
[1] = test system: 53 CRE and CPE strains; test: MICrange, MIC50, MIC80, MIC90 for 53 bacterial isolates (Example 5, Table 5); format: cell-based
[2] = test system: A. baumannii; test: MIC, broth microdilution, CDC/FDA Antibiotic Resistance Isolate Bank (Example 7, Tables 9, 13, 14); format: cell-based, Acinetobacter baumannii; conditions: for MIC: read-out: MIC
[3] = test system: Enterobacterales; test: MIC, broth microdilution, CDC/FDA Antibiotic Resistance Isolate Bank (Example 7, Tables 8, 11, 12); format: cell-based

C[C@@H](O)[C@H]1C(=O)N2C(C(=O)O)=C(S[C@@H]3CN[C@H](C(=O)N(C)C)C3)[C@H](C)[C@H]12 [MEPM, meropenem]
0.25 µg/mL: MIC ([3]; Enterobacter cloacae, KUB No. 5562, AR Bank # 65, no carbapenemase gene, read-out: MIC)
32 µg/mL: MIC50 ([2]; 55 isolates of A. baumannii) | MIC ([2]; Acinetobacter baumannii, A. baumannii KUB No. 5575, AR Bank #78, OXA-71) | MIC ([2]; Acinetobacter baumannii, A. baumannii KUB No. 5706, AR Bank #273, OXA-23, OXA-66) | MIC ([2]; Acinetobacter baumannii, A. baumannii KUB No. 5708, AR Bank #275, OXA-23, OXA-66) | MIC ([2]; Acinetobacter baumannii, A. baumannii KUB No. 5711, AR Bank #278, OXA-23, OXA-66) | MIC ([2]; Acinetobacter baumannii, A. baumannii KUB No. 5712, AR Bank #279, OXA-23, OXA-66) | MIC ([2]; Acinetobacter baumannii, A. baumannii KUB No. 5715, AR Bank #282, OXA-23, OXA-66) | MIC ([2]; Acinetobacter baumannii, A. baumannii KUB No. 5716, AR Bank #283, OXA-23, OXA-66) | MIC ([2]; Acinetobacter baumannii, A. baumannii KUB No. 5723, AR Bank #90, OXA-23, OXA-66) | MIC ([2]; Acinetobacter baumannii, A. baumannii KUB No. 5724, AR Bank #291, OXA-23, OXA-66) | MIC ([2]; Acinetobacter baumannii, A. baumannii KUB No. 5727, AR Bank #294, OXA-23, OXA-65) | MIC ([2]; Acinetobacter baumannii, A. baumannii KUB No. 5728, AR Bank #295, OXA-23, OXA-66) | MIC ([2]; Acinetobacter baumannii, A. baumannii KUB No. 5732, AR Bank #299, OXA-23, OXA-203) | MIC ([2]; Acinetobacter baumannii, A. baumannii KUB No. 5735, AR Bank #302, OXA-23, OXA-82) | MIC ([2]; Acinetobacter baumannii, A. baumannii KUB No. 5742, AR Bank #309, OXA-23, OXA-82) | MIC ([2]; Acinetobacter baumannii, A. baumannii KUB No. 5743, AR Bank #310, OXA-23, OXA-82) | MIC ([2]; Acinetobacter baumannii, A. baumannii KUB No. 5744, AR Bank #311, OXA-23, OXA-82) | MIC50 ([2]; Acinetobacter baumannii, 55 strains of A. baumannii, read-out: MIC50) | MIC ([3]; Enterobacter cloacae, Enterobacter cloacae complex, KUB No. 5661, AR Bank# 164, NMC-A, read-out: MIC) | MIC ([3]; Escherichia coli, KUB No. 5634, AR Bank# 137, NDM-6, read-out: MIC) | MIC ([3]; Escherichia coli, KUB No. 5659, AR Bank# 162, NDM-7, read-out: MIC) | MIC ([3]; Escherichia coli, KUB No. 5781, AR Bank# 435, NDM-1, read-out: MIC)
≤ 0.06 µg/mL: MIC ([3]; Enterobacter cloacae, KUB No. 5557, AR Bank # 60, no carbapenemase gene, read-out: MIC) | MIC ([3]; Enterobacter cloacae, KUB No. 5570, AR Bank # 73, no carbapenemase gene, read-out: MIC) | MIC ([3]; Escherichia coli, KUB No. 5764, AR Bank# 368, no carbapenemase genes, read-out: MIC) | MIC ([3]; Escherichia coli, KUB No. 5765, AR Bank# 369, no carbapenemase genes, read-out: MIC) | MIC ([3]; Escherichia coli, KUB No. 5766, AR Bank# 370, no carbapenemase genes, read-out: MIC) | MIC ([3]; Escherichia coli, KUB No. 5767, AR Bank# 371, no carbapenemase genes, read-out: MIC) | MIC ([3]; Escherichia coli, KUB No. 5768, AR Bank# 372, no carbapenemase genes, read-out: MIC) | MIC ([3]; Escherichia coli, KUB No. 5769, AR Bank# 373, no carbapenemase genes, read-out: MIC) | MIC ([3]; Escherichia coli, KUB No. 5770, AR Bank# 374, no carbapenemase genes, read-out: MIC) | MIC ([3]; Escherichia coli, KUB No. 5774, AR Bank# 378, no carbapenemase genes, read-out: MIC) | MIC ([3]; Escherichia coli, KUB No. 5779, AR Bank# 433, no carbapenemase genes, read-out: MIC) | MIC ([3]; Escherichia coli, KUB No. 5780, AR Bank# 434, no carbapenemase genes, read-out: MIC) | MIC ([3]; Escherichia coli, KUB No. 5782, AR Bank# 436, no carbapenemase genes, read-out: MIC) | MIC ([3]; Escherichia coli, KUB No. 5783, AR Bank# 437, no carbapenemase genes, read-out: MIC)
> 32 µg/mL: MIC ([3]; Enterobacter cloacae, KUB No. 5535, AR Bank # 38, NDM-1, read-out: MIC) | MIC ([3]; Escherichia coli, KUB No. 5647, AR Bank# 150, NDM-5, read-out: MIC)
2 µg/mL: MIC ([3]; Enterobacte (name cut at the end of the table), KUB No. 5629, AR Bank # 132, NMC (cut), read-out: MIC) | MIC ([3]; Enterobacter cloacae, KUB No. 5550, AR Bank # 53, KPC-3, read-out: MIC) | MIC ([3]; Enterobacter cloacae, KUB No. 5761, AR Bank# 365, KPC-2, read-out: MIC) | MIC ([3]; Escherichia coli, KUB No. 5611, AR Bank # 114, KPC-3, read-out: MIC) | MIC ([3]; Escherichia coli, KUB No. 5796, AR Bank# 452, NDM-5, read-out: MIC)
16 µg/mL: MIC80 ([1]; 53 CRE and CPE strains, read-out: MIC80) | MIC80 ([1]; 53 bacterial isolates) | MIC ([2]; Acinetobacter baumannii, A. baumannii KUB No. 5721, AR Bank #288, OXA-23, OXA-66) | MIC ([2]; Acinetobacter baumannii, A. baumannii KUB No. 5730, AR Bank #297, OXA-23, OXA-66) | MIC ([2]; Acinetobacter baumannii, A. baumannii KUB No. 5731, AR Bank #298, OXA-66, OXA-237) | MIC ([2]; Acinetobacter baumannii, A. baumannii KUB No. 5736, AR Bank #303, OXA-23, OXA-66) | MIC ([2]; Acinetobacter baumannii, A. baumannii KUB No. 5741, AR Bank #308, OXA-71) | MIC ([2]; Acinetobacter baumannii, A. baumannii KUB No. 5746, AR Bank #313, OXA-23, OXA-69) | MIC ([3]; Citrobacter freundii) | MIC ([3]; Enterobacter cloacae, KUB No. 5792, AR Bank# 448, NDM-1, read-out: MIC) | MIC ([3]; Escherichia coli, KUB No. 5794, AR Bank# 450, no carbapenemase genes, read-out: MIC)
4 µg/mL: MIC50 ([1]; 53 CRE and CPE strains, read-out: MIC50) | MIC50 ([1]; 53 bacterial isolates) | MIC ([2]; Acinetobacter baumannii, A. baumannii KUB No. 5709, AR Bank #276, no carbapenemase genes (-)) | MIC ([2]; Acinetobacter baumannii, A. baumannii KUB No. 5745, AR Bank #312, OXA-69) | MIC ([3]; Enterobacter cloacae, KUB No. 5651, AR Bank# 154, VIM-1, read-out: MIC) | MIC ([3]; Enterobacter cloacae, KUB No. 5660, AR Bank# 163, KPC-2, read-out: MIC) | MIC ([3]; Enterobacter cloacae, KUB No. 5808, AR Bank# 502, IMP-8, read-out: MIC)
0.5 µg/mL: MIC ([3]; Enterobacter cloacae, KUB No. 5547, AR Bank # 50, KPC-4, read-out: MIC) | MIC ([3]; Enterobacter cloacae, KUB No. 5763, AR Bank# 367, no carbapenemase genes, read-out: MIC) | MIC ([3]; Enterobacter cloacae, KUB No. 5807, AR Bank# 501, VIM-1, read-out: MIC) | MIC ([3]; Klebsiella aerogenes, Enterobacter aerogenes, KUB No. 5571, AR Bank # 74, OXA-48, read-out: MIC)
0.06 to 256 µg/mL: MICrange ([1]; 53 bacterial isolates)
0.12 µg/mL: MIC ([3]; Enterobacter cloacae, KUB No. 5529, AR Bank # 32, KPC-3, read-out: MIC) | MIC ([3]; Enterobacter cloacae, KUB No. 5569, AR Bank # 72, no carbapenemase gene, read-out: MIC) | MIC ([3]; Enterobacter cloacae, KUB No. 5778, AR Bank# 432, no carbapenemase genes, read-out: MIC) | MIC ([3]; Klebsiella aerogenes, Enterobacter aerogenes, KUB No. 5559, AR Bank # 62, no carbapenemase gene, read-out: MIC)
8 µg/mL: MIC ([2]; Acinetobacter baumannii, A. baumannii KUB No. 5567, AR Bank #70, OXA-58, OXA-100) | MIC ([2]; Acinetobacter baumannii, A. baumannii KUB No. 5714, AR Bank #281, OXA-82) | MIC ([2]; Acinetobacter baumannii, A. baumannii KUB No. 5740, AR Bank #307, OXA-66, OXA-237) | MIC ([3]; Enterobacter cloacae, KUB No. 5633, AR Bank# 136, KPC-3, read-out: MIC) | MIC ([3]; Escherichia coli, KUB No. 5646, AR Bank# 149, NDM-7, read-out: MIC) | MIC ([3]; Escherichia coli, KUB No. 5648, AR Bank# 151, NDM-5, read-out: MIC)
64 µg/mL: MIC90 ([1]; 53 CRE and CPE strains, read-out: MIC90) | MIC90 ([1]; 53 bacterial isolates) | MIC ([2]; Acinetobacter baumannii, A. baumannii KUB No. 5729, AR Bank #296, OXA-23, OXA-223) | MIC ([2]; Acinetobacter baumannii, A. baumannii KUB No. 5737, AR Bank #304, OXA-66, OXA-72)
32 µg/mL and >32 µg/mL: MIC90 [3]
1 µg/mL: MIC ([3]; Enterobacter cloacae, KUB No. 5590, AR Bank # 93, KPC-6, read-out: MIC) | MIC ([3]; Enterobacter cloacae, KUB No. 5762, AR Bank# 366, KPC-2, read-out: MIC) | MIC ([3]; Escherichia coli, KUB No. 5558, AR Bank # 61, KPC-3 (line continued in Table 8-2), read-out: MIC) | MIC ([3]; Klebsiella aerogenes, Enterobacter aerogenes, KUB No. 5658, AR Bank# 161, IMP-4, read-out: MIC)

— patent EP4635500A1, “THERAPEUTIC AGENT FOR BACTERIAL INFECTION” (Sumitomo Pharma Co., Ltd., priority 2022, dated 2024)
